{"source": "patent US20220064689A1", "about": "“AMPHOTERIC GLYCOLIPID BIOSURFACTANT AND ITS PREPARATION METHOD” (Mikros Biochem, priority 2020, published 2022)", "key": {"[1]": {"test_system": "Candida albicans (ATCC 10231)", "test": "Antibacterial analysis per national standard WS/T 650-2019, viable count over 28 days", "format": "cell-based", "conditions": "4.0% (aqueous solution of surfactant, or 4.0% sodium benzoate comparative)", "description": "(§1) Using the protocol set out in the national standard test WS/T 650-2019 “Evaluation Method of Antibacterial and Antibacterial Effects”, the amphiphilic biosurfactant produced as described above was analysed for antibacterial effects."}, "[2]": {"test_system": "Staphylococcus aureus (ATCC 6538)", "test": "Antibacterial analysis per national standard WS/T 650-2019, viable count over 28 days", "format": "cell-based", "conditions": "4.0% (aqueous solution of surfactant, or 4.0% sodium benzoate comparative)", "description": "as §1"}}, "note": "Several values for one entry are separate records, joined by “and”; a condition that tells them apart may be missing. Identical values can stand only once."}
{"smiles": "O=C([O-])c1ccccc1.[Na+]", "note": "[sodium benzoate]", "values": [{"measurement": "CFU/mL Candida albicans (ATCC 10231) Day 0", "setting": "[1]; Day 0", "value": "4.0 × 10^5 CFU/mL"}, {"measurement": "CFU/mL Candida albicans (ATCC 10231) Day 7", "setting": "[1]; Day 7", "value": "3.4 × 10^2 CFU/mL"}, {"measurement": "CFU/mL Candida albicans (ATCC 10231) Day 14", "setting": "[1]; Day 14", "value": "3.0 × 10^1 CFU/mL"}, {"measurement": "CFU/mL Candida albicans (ATCC 10231) Day 21", "setting": "[1]; Day 21", "value": "<10", "unit": "CFU/mL"}, {"measurement": "CFU/mL Candida albicans (ATCC 10231) Day 28", "setting": "[1]; Day 28", "value": "<10", "unit": "CFU/mL"}, {"measurement": "CFU/mL Staphylococcus aureus (ATCC 6538) Day 0", "setting": "[2]; Day 0", "value": "5.0 × 10^6 CFU/mL and 5.2 × 10^6 CFU/mL"}, {"measurement": "CFU/mL Staphylococcus aureus (ATCC 6538) Day 14", "setting": "[2]; Day 14", "value": "8.7 × 10^1 CFU/mL"}, {"measurement": "CFU/mL Staphylococcus aureus (ATCC 6538) Day 21", "setting": "[2]; Day 21", "value": "<10", "unit": "CFU/mL"}]}
